Here are results for 5 compounds from PMC6151508, “Development of Novel Nrf2/ARE Inducers Bearing Pyrazino[2,1-a]isoquinolin Scaffold with Potent In Vitro Efficacy and Enhanced Physicochemical Properties” (Molecules : A Journal of Synthetic Chemistry and Natural …, 2017).

Data set [1] relates to heme oxygenase-1 (HO-1). Also noted: method as in PMID 24053646. Conditions: HCT116; cited from earlier work.
Data set [2] relates to antioxidant response element (ARE). Further details: method as in PMID 24053646. The note with it: 10 μM, luciferase reporter assay; cited from earlier work. For orientation: In a reporter assay the amount or activity of a reporter protein is the signal.
Data set [3] has as its system Nrf2. Also noted: method as in PMID 24053646. The note with it: HCT116; cited from earlier work.
Data set [4] relates to NQO1. Further details: method as in PMID 24053646. Conditions: HCT116; cited from earlier work.
Data set [5] relates to colorectal adenomas. Further details: method as in PMID 24053646. The note with it: AOM-DSS mouse model; cited from earlier work.
Data set [6] deals with HCT116 cells. Also noted: method as in PMID 24053646. The note with it: previously reported value; cited from earlier work.
Data set [7] is described as follows: log D pH 7.4 by potentiometric titration (Gemini Profiler, pION). The class given is physicochemical. The source says:
(§1) Ketoprofen and propranolol were chosen as a control.
(§2) This is a new potentiometric acid−base titration method.

A short description of data set [8]: pKa by potentiometric titration (Gemini Profiler, pION). The class given is physicochemical.
Text: as §1, §2

The nature of data set [9]: Parallel artificial membrane permeability assay (PAMPA by pION). The note with it: pH 7.4. On the technique in general: In PAMPA a lipid-coated filter parts donor from acceptor wells.
Protocol: (§6) Then we evaluated the physicochemical properties of a selected series of our compounds. […] All of them were evaluated with pKa, partition coefficient (log D, pH 7.4), membrane permeability (Pe, pH 7.4) and water solubility. […] Permeability (Pe) was determined by a standard parallel artificial membrane permeability assay (PAMPA by pION).
(§7) Permeability (Pe) was determined by a standard parallel artificial membrane permeability assay (PAMPA by pION).
Data set [10] deals with antioxidant response element (ARE). The data set can be described thus: ARE luciferase reporter assay in HepG2-ARE-C8 cells. It counts as cell-based. Conditions: HepG2-ARE-C8, 12 h of treatment, mean ± SD n = 3; for fold induction at 0.1 µM / fold induction at 1 µM / fold induction at 5 µM / fold induction at 10 µM / fold induction at 50 µM / fold induction at 100 µM: read-out: ARE Inductivity in Luciferase Reporter Assay (induction fold). The method, then: (§3) All the derivatives were evaluated for their ability to induce ARE in HepG2-ARE-C8 cell (HepG2 cells stably transfected with a luciferase reporter) by ARE luciferase reporter assay, and they were compared to the lead compound 2. At the same time, cytotoxicity studies were performed by the MTT assay against the HCT116 cells. The results of cytotoxic activity in vitro were expressed as the IC50 [18]. Because those compounds were designed for chemoprevention, they should not be cytotoxic.
HepG2-ARE-C8 cells (4 × 10^4 cells/well) were incubated overnight in 96-well plates, and then treated with different concentrations of test compounds. tBHQ was used as a positive control, DMSO was used as a negative control, and the luciferase cell culture lysis reagent was used as a blank. The medium was removed after 12 h treatment. Then, the cells were harvested in the luciferase cell culture lysis reagent together with 100 μL of cold PBS. Then, centrifuging the solution and 20 μL of the supernatant was used for determining the luciferase activity. The luciferase activity was measured by a Luminoskan Ascent (Thermo Scientific, Waltham, MA, USA). The data were obtained in triplicate and expressed as fold induction over the control. Induction fold = (RLUtest − RLUblank)/(RLUDMSOcontrol − RLUblank). RLU = relative light unit l.

Data set [11] in a line: Water solubility by pH-metric method (pSOL model 3). It counts as physicochemical. The note with it: for solubility: water, pH 7.4, aqueous buffer, thermodynamic from solid.
Text: as §2

A short description of data set [12]: MTT cell viability (cytotoxicity) assay. It counts as cell-based. Conditions: human, HCT116 cells. The method, then:
as §3
Cell viabilities were determined by using 3-[4,5-dimethylthiazol-2-yl]-2,5-diphenyltetrazolium bromide (MTT) assay. MTT was dissolved in (phosphate buffered solution) PBS to a concentration of 5 mg/mL. HCT116 cells (8 × 10^3 cells/well) were plated in 96-well plates and incubated overnight. Different concentrations of test compounds were added to each cell for 24 h at 37 °C, and the 20 μL MTT solution was added and incubated for an additional 4 h. Then, 100 μL of DMSO was added to dissolve formazan precipitate after the solution was removed. The OD value was determined at 570 nm by Elx800 absorbance microplate reader (BioTek, Winooski, VT, USA). IC50 value (concentration at which cell survival equals 50% of control) = […].

Data set [13] has as its system NQO1. The data set can be described thus: Western blot of NQO1 protein level in HCT116. It counts as cell-based, human. Conditions: tBHQ at 100 μM. The source says:
(§4) Compound 3g was selected to evaluate its capacity to activate the expression of Nrf2-regulated NQO1 by measuring the protein levels in HCT116 via Western Blot. […] Those data further confirmed that 3g bearing pyrido[1,2-a]pyrazin scaffold could elevate both Nrf2 and downstream proteins of Nrf2 at the cellular level.
(§5) Anti-NQO1 (sc-271116), anti-Nrf2 (BS1258) and Anti-β-actin (AP0060) antibodies were purchased from Santa Cruz Biotechnology (Santa Cruz, CA, USA) and Bioworlde (Bioworlde, Visalia, CA, USA), respectively. The isolation of cell fractions and Western blotting were performed as detailed previously. Briefly, the extracts were separated by SDS-PAGE and then electrotransferred to PVDF membranes (Perkin Elmer, Northwalk, CT, USA). Membranes were blocked with 1% BSA for 1 h followed by incubation with a primary antibody at 4 °C overnight. Then they were washed and treated with a DyLight 800 labeled secondary antibody at 37 °C for 2 h. The membranes were screened through the odyssey infrared imaging System (LI-COR, Lincoln, NE, USA).

For data set [14], the system named is Nrf2. The data set can be described thus: Western blot of Nrf2 protein level in HCT116. It counts as cell-based, human. Conditions: HCT116, 10 μM.
Text: as §4, §5

Data set [15] is described as follows: physchem. The note with it: PAMPA, pH 7.4.
Protocol: as §6, §7

Converted amounts (≈) assume the structure as drawn.

In general, IC50 refers to the midpoint of a concentration-inhibition curve. Usually logD stands for lipophilicity at a set pH, counting ionised and neutral species. A word on the pKa: it is the negative logarithm of the acid dissociation constant. The term Papp denotes the rate of passage across a membrane or cell layer, normalised by area and donor concentration. The term solubility denotes how much of the substance goes into solution per volume. Low readings indicate a poorly soluble substance, high ones a readily soluble substance. In general, melting point refers to the temperature of the solid-liquid transition.

For `O=C(/C=C1\NCC2c3ccccc3CCN2C1=O)c1ccccc1` (stereo not drawn) [Compound 1], in [1], the “expression of HO-1” value is “induce”. Besides, in data set [2], the “induction of ARE (previously reported)” value is on record as 26.87 fold. Besides, the “nuclear translocation of Nrf2” value in data set [3] is reported as “induce the nuclear translocation of Nrf2”. Moreover, in data set [4], the “expression of NQO1” value was “induce”. Further, the “development of colorectal adenomas” value in data set [5] was “significantly inhibit”.
With `O=C(/C=C1\NCC2c3ccccc3CCN2C1=O)c1cccc(F)c1` (stereo not drawn) [Compound 2], the half-inhibitory concentration (IC50) in [6] is more than 100 µM. Besides, in [7], the logD was 2.38. Also, in data set [8], the pKa was found to be 2.78. In data set [9], this compound showed a Papp of 11.7 ± 2.2 ×10⁻⁶ cm/s. Moreover, in data set [10], the fold induction at 0.1 µM is 1.45 ± 0.39, the fold induction at 1 µM turned out to be 6.2 ± 4.06, the fold induction at 5 µM is 16.2 ± 0.3 and the fold induction at 50 µM came to 7.51 ± 1.32. Further, in data set [10] (10 μM), the “ARE Inductivity in Luciferase Reporter Assay (induction fold)” value (shortened to “ARE Inductivity … (induction fold)”) is recorded as 31.17 ± 4.14 fold and the fold induction at 10 µM turned out to be 31.2. For the same compound, the fold induction at 100 µM in data set [10] (100 μM) was 12.2 ± 3.32. In data set [11] (pH 7.4), the water solubility was found to be 0.022 µg/µL (≈ 65.4 µM). The compound also registered a solubility in data set [11] of 22 µg/mL (≈ 65.4 µM). The “induction of ARE (previously reported)” value in [2] is 33.00 fold. Further, in data set [12], inhibition was half-maximal at 165 µM (IC50 at 24 h).
`O=C(C=C1NCC2CCCCN2C1=O)c1ccco1` (stereo not drawn) [Compound 3g, 3-(2-(furan-2-yl)-2-oxoethylidene)octahydro-4H-pyrido[1,2-a]pyrazin-4-one] gave a melting point of 152 to 154 °C. Also, the “NQO1 protein level (Western blot)” value in [13] was “induced by 3g in a concentration-dependent manner”. In data set [7], the logD was -0.34. This compound also gave a pKa in data set [8] of 2.08. Besides, in data set [9], the Papp turned out to be 32.7 ± 1.92 ×10⁻⁶ cm/s. Also, the “Nrf2 protein level (Western blot)” value in [14] is reported as “elevated the protein level of Nrf2”. Also, in [10], the fold induction at 0.1 µM was 0.24 ± 0.15, the fold induction at 1 µM was found to be 1.5 ± 0.01, the fold induction at 5 µM amounted to 6.41 ± 3.14 and the fold induction at 50 µM was 41.6 ± 2.6. In data set [10] (10 μM), the “ARE Inductivity … (induction fold)” value is on record as 27.01 ± 2.46 fold and the fold induction at 10 µM was 27. For the same compound, in data set [10] (100 μM), the “ARE Inductivity … (induction fold)” value was 79.74 ± 1.92 fold and the fold induction at 100 µM was 79.7. In addition, the solubility in [11] came to 3310 µg/mL (≈ 12700 µM). Moreover, the IC50 at 24 h in data set [12] is more than 300 µM.
In data set [15], `CC(C)NCC(O)COc1cccc2ccccc12` (stereo not drawn) [Propranolol] displayed an apparent permeability (Papp) of 64.7 ± 8.58 ×10⁻⁶ cm/s.
For `CC(C)(C)c1cc(O)ccc1O` [tBHQ, tert-butylhydroquinone, reference compound], the “NQO1 protein level (Western blot)” value in data set [13] is “induced expression of NQO1”. Further, in data set [10], the fold induction at 0.1 µM came out at 1 ± 0.01, the fold induction at 1 µM came to 1.8 ± 0.66, the fold induction at 5 µM came out at 1.67 ± 0.56 and the fold induction at 50 µM came to 4.45 ± 1.15. Further, the fold induction at 10 µM in data set [10] (10 μM) stood at 1.98 ± 0.29. In addition, in data set [10] (100 μM), the “ARE Inductivity … (induction fold)” value is 10.79 ± 3.13 fold and the fold induction at 100 µM is 10.8.
